Assay [1] concerns the target muscarinic receptors ([^3 H]-OXO-M binding). As to the kind of experiment: Inhibition of [^3 H]-oxotremorine-M ([^3 H]-OXO-M) binding, rat cerebral cortex. Further details: species or system rat (male Hooded Lister). The conditions noted are these: [^3 H]-OXO-M 1.88 nM, 37° C., geometric mean, n = 2.
Assay [2] deals with muscarinic receptors ([^3 H]-QNB binding). Further details: species or system rat (male Hooded Lister). The settings on record: rat cerebral cortex; [^3 H]-QNB 0.27 nM; geometric mean; n = 2.
Assay [3] is described as follows: Functional studies in vivo: salivation. The conditions noted are these: mouse, read-out: Salivation ED50 (dose inducing 50% of the maximum score). Further details: species or system mouse (male CD1). As to the method: (§1) Male mice (CD1, Charles River UK, 25-35 g) were used in the in vivo experiments. Animals were housed in groups of 10 and allowed food and water ad libitum. Two hours prior to the experiment the animals were rehoused in groups of 5 and allowed to acclimatize to their new environment. Each group was assigned one dose of test compound.
(§2) Test compounds or vehicle were administered by either the subcutaneous (sc) or oral (po) routes. Animals were subjectively assessed for signs of salivation and body tremor 15, 30, 45, 60, 90, 120, 150, 180, 240 and 300 minutes post dose, using a scoring system: 0=absent; 1=mild; 2=moderate; 3=severe. Changes in core body temperature, a measure of central activity, were recorded at the same timepoints using a rectal probe (Comark Electronic Thermometer Type 9001 )

Assay [4] can be described thus: Functional studies in vivo: hypothermia (core body temperature). The arrangement: species or system mouse (male CD1). The settings on record: mouse, 95% CL on next line. As to the method: as §1, §2
The nature of assay [5]: Functional studies in vivo: body tremor. Further details: species or system mouse (male CD1). The settings on record: mouse, read-out: Tremor ED50 (dose inducing 50% of the maximum score). As to the method:
as §1, §2

What is called IC50 is the concentration needed to halve the response being measured. A higher IC50 goes with weaker potency in that assay. As usually defined, the ED50 is the midpoint of the dose-response relation.

For the compound `CO/N=C(\C#N)[C@H]1C[N+]2([O-])CCC1CC2` [Compound X, [R-(Z)]-α-(methoxyimino)-α-(1-azabicyclo[2.2.2]oct-3-yl)acetonitrile-1-oxide], the IC50 in assay [1] came out at 2.86 µM; in assay [2], 68.7 µM. For the same compound, the ED50 is below 0.3 mg/kg in assay [3] (oral); 2.38 mg/kg in assay [3] (sc, subcutaneous, 95% CL on next line); above 30 mg/kg in assay [5] (oral); above 30 mg/kg in assay [5] (sc, subcutaneous). For the same compound, the “Hypothermia ED3° (dose inducing 3° fall in core body temperature)” value in assay [4] (oral) came to 5.8 mg/kg; in assay [4] (subcutaneous), 21.3 mg/kg.

Source of the values: US5675007A (priority 1994, dated 1997).
